The nature of series [1]: In vitro dissociation of the water soluble taxane derivatives in blood plasma of rat. In kind it is in vitro ADME, SD rats. As to conditions: 37° C. As to the method: The obtained water soluble taxane derivatives were formulated as 0.2 mg/ml aqueous solutions. […] After 2 min, 5 min and 10 min of incubation, 0.2 ml of solutions were respectively taken from each of the samples, and added to acetonitrile (0.4 ml) cooled to −20° C. for precipitation of protein.

Series [2] in a line: In vitro dissociation of the water soluble taxane derivatives in blood plasma of rabbit. The format is in vitro ADME, New Zealand white rabbits. To be noted: 37° C. The method, then:
The obtained water soluble taxane derivatives were formulated as 0.2 mg/ml aqueous solutions. […] After 5 min, 20 min and 60 min of incubation, 0.2 ml of solutions were respectively taken from each of the samples, and added to acetonitrile (0.4 ml) cooled to −20° C. for precipitation of protein.

Series [3] deals with human ovarian cancer SK-OV-3. To be noted: 24 mg/kg (paclitaxel 16 mg/kg) D0-4 IV; for Tumor volume (D0): D0, at grouping; for Tumor inhibitory percent (%) D22: P=0.000 compared to the control.
Source text: Test of the inhibitory activity of the water soluble paclitaxel derivatives on subcutaneously xenografted tumor of human ovarian cancer SK-OV-3 in nude mice: evaluating and comparing the inhibitory activity of the water soluble paclitaxel derivatives of the present invention, paclitaxel and Abraxane® on subcutaneously xenografted tumor of human ovarian cancer SK-OV-3 in nude mice.
Human ovarian cancer SK-OV-3 cells were subcutaneously inoculated to nude mice. After the tumor volume reached 100-150 mm^3, the animals were randomly divided into groups (D0), and administered with the water soluble paclitaxel derivatives of the present invention, paclitaxel, and Abraxane®, respectively once per day for 5 days. The tumor volume was measured 2-3 times per week, the animals were weighed and the data were recorded until day 22 (D22) after grouping.
The tumor volume (V) was calculated according to the equation: V=½×a×b^2, wherein a and b represent the length and the width, respectively.
T/C (%)=(T−T0)/(C−C0)×100, wherein T and C represent the tumor volume at the end of the experiment; and T0 and C0 represent the tumor volume at the beginning of the experiment.

Structures can show the parent of a compound that is named as a salt.

As for “2′-O-[5-(N-methyl-N-ethyl)amino-2(R)-2-difluoroethylvaleryl]docetaxel hydrochloride [Compound 12]”, the dissociation percent in series [1] (2 min) was found to be 43.6%; in series [1] (5 min), 75.6%; in series [1] (10 min), 89.6%; in series [2] (5 min), 35.2%; in series [2] (20 min), 61.3%; in series [2] (60 min), 73.2%.

On to `CO[C@H]1C(=O)[C@]2(C)[C@@H](OC)C[C@H]3OC[C@@]3(OC(C)=O)[C@H]2[C@H](OC(=O)c2ccccc2)[C@]2(O)C[C@H](OC(=O)[C@H](OC(=O)[C@H](F)CCN(C)C)[C@@H](NC(=O)OC(C)(C)C)c3ccccc3)C(C)=C1C2(C)C` [Compound 07, 2′-O-[4-(N,N-dimethyl)amino-2(R)-fluorobutyryl]cabazitaxel hydrochloride], for which the dissociation percent in series [1] (2 min) is reported as 49.5%; in series [1] (5 min), 89.6%; in series [1] (10 min), 100%; in series [2] (5 min), 79.2%; in series [2] (20 min), 95.5%; in series [2] (60 min) it was 100%.

With `CO[C@H]1C(=O)[C@]2(C)[C@@H](OC)C[C@H]3OC[C@@]3(OC(C)=O)[C@H]2[C@H](OC(=O)c2ccccc2)[C@]2(O)C[C@H](OC(=O)[C@H](OC(=O)[C@@H](F)CCN(C)C)[C@@H](NC(=O)OC(C)(C)C)c3ccccc3)C(C)=C1C2(C)C.Cl` [Compound 08, 2′-O-[4-(N,N-dimethyl)amino-2(S)-fluorobutyryl]cabazitaxel hydrochloride], the dissociation percent in series [1] (2 min) is 47.6%; in series [1] (5 min) it was 87.6%; in series [1] (10 min), 100%; in series [2] (5 min) it was 89.9%; in series [2] (20 min), 93.2%; in series [2] (60 min) it was 100%.

As to `COC1C(=O)C2(C)C(OC)CC3OCC3(OC(C)=O)C2C(OC(=O)c2ccccc2)C2(O)CC(OC(=O)C(OC(=O)C(F)CCN(C)C)C(NC(=O)OC(C)(C)C)c3ccccc3)C(C)=C1C2(C)C.Cl` [Compound 09, 2′-O-[4-(N,N-dimethyl)amino-2(R,S)-fluorobutyryl]cabazitaxel hydrochloride], the dissociation percent amounted to 47.8% in series [1] (2 min); 89.1% in series [1] (5 min); 100% in series [1] (10 min); 83.2% in series [2] (5 min); 97.1% in series [2] (20 min); 100% in series [2] (60 min).

As to `COC1C(=O)C2(C)C(OC)CC3OCC3(OC(C)=O)C2C(OC(=O)c2ccccc2)C2(O)CC(OC(=O)C(OC(=O)C(CCN)C(F)F)C(NC(=O)OC(C)(C)C)c3ccccc3)C(C)=C1C2(C)C.O=S(=O)([O-])O.[Na+]` [Compound 10, 2′-O-[4-amino-2(R)-difluoromethylbutyryl]cabazitaxel sodium bisulfate salt], the dissociation percent in series [1] (2 min) came out at 45.2%; in series [1] (5 min) it was 86.5%; in series [1] (10 min), 96.8%; in series [2] (5 min), 38.1%; in series [2] (20 min) it was 63.2%; in series [2] (60 min), 80.3%.

Turning to `CCN(CC)CC[C@](C)(C(=O)O[C@@H](C(=O)O[C@H]1C[C@@]2(O)[C@@H](OC(=O)c3ccccc3)[C@@H]3[C@]4(OC(C)=O)CO[C@@H]4C[C@H](OC)[C@@]3(C)C(=O)[C@H](OC)C(=C1C)C2(C)C)[C@@H](NC(=O)OC(C)(C)C)c1ccccc1)C(F)(F)F.CS(=O)(=O)O` [Compound 11, 2′-O-[4-(N,N-diethyl)amino-2-methyl-2(R)-2-trifluoromethylbutyryl]cabazitaxel methanesulfonate], the dissociation percent stood at 52.3% in series [1] (2 min); 89.6% in series [1] (5 min); 97.2% in series [1] (10 min); 56.2% in series [2] (5 min); 80.5% in series [2] (20 min); 92.1% in series [2] (60 min).

For the compound `CCN(C)CC[C@@H](F)C(=O)O[C@@H](C(=O)O[C@H]1C[C@@]2(O)[C@@H](OC(=O)c3ccccc3)[C@@H]3[C@]4(OC(C)=O)CO[C@@H]4C[C@H](O)[C@@]3(C)C(=O)[C@H](OC(C)=O)C(=C1C)C2(C)C)[C@@H](NC(=O)c1ccccc1)c1ccccc1.CS(=O)(=O)O` [Compound 16, 2′-O-[4-(N-methyl-N-ethyl)amino-2(R)-fluorobutyryl]paclitaxel methanesulfonate], in series [3], the “Tumor volume (D0)” value amounted to 133.6 ± 9.4 mm^3, the “Weight change (%) D4” value is reported as −7.0%, the “T/C (%) D22” value was −53% and the “Tumor volume (D22)” value was found to be 55.7 ± 10.6 mm^3. Further, the “Tumor inhibitory percent (%) D22” value in series [3] was determined as 137%.

With `CCN(CC)CC[C@H](F)C(=O)O[C@@H](C(=O)O[C@H]1C[C@@]2(O)[C@@H](OC(=O)c3ccccc3)[C@@H]3[C@]4(OC(C)=O)CO[C@@H]4C[C@H](O)[C@@]3(C)C(=O)[C@H](OC(C)=O)C(=C1C)C2(C)C)[C@@H](NC(=O)c1ccccc1)c1ccccc1.O=C(O)/C=C/C(=O)O` [Compound 17, 2′-O-[4-(N,N-diethyl)amino-2(S)-fluorobutyryl]paclitaxel fumarate], in series [3], the “Tumor volume (D0)” value came out at 133.6 ± 9.4 mm^3, the “Weight change (%) D4” value was −8.1%, the “T/C (%) D22” value is reported as −44% and the “Tumor volume (D22)” value was determined as 55.7 ± 10.1 mm^3. Further, the “Tumor inhibitory percent (%) D22” value in series [3] was 114%.

Regarding `CC(=O)O[C@H]1C(=O)[C@@]2(C)[C@H]([C@H](OC(=O)c3ccccc3)[C@]3(O)C[C@H](OC(=O)[C@H](OC(=O)C(F)CCN(C)C(C)C)[C@@H](NC(=O)c4ccccc4)c4ccccc4)C(C)=C1C3(C)C)[C@]1(OC(C)=O)CO[C@@H]1C[C@@H]2O.Cl` (stereo partly drawn) [Compound 18, 2′-O-[4-(N-methyl-N-isopropyl)amino-2(R,S)-fluorobutyryl]paclitaxel hydrochloride], in series [3], the “Tumor volume (D0)” value came to 127.9 ± 11.4 mm^3, the “Weight change (%) D4” value was −10.3%, the “T/C (%) D22” value is given as −38% and the “Tumor volume (D22)” value is on record as 60.4 ± 12.3 mm^3. The “Tumor inhibitory percent (%) D22” value in series [3] was determined as 98%.

Consider `CC(=O)OC1C(=O)C2(C)C(O)CC3OCC3(OC(C)=O)C2C(OC(=O)c2ccccc2)C2(O)CC(OC(=O)C(OC(=O)C(CCN(C)C)C(F)(F)F)C(NC(=O)c3ccccc3)c3ccccc3)C(C)=C1C2(C)C.Cc1ccc(S(=O)(=O)O)cc1` [Compound 19, 2′-O-[4-(N,N-dimethyl)amino-2(R,S)-2-trifluoromethylbutyryl]paclitaxel p-toluene sulfonate], for which, in series [3], the “Tumor volume (D0)” value is recorded as 134.9 ± 11.4 mm^3, the “Weight change (%) D4” value is −8.9%, the “T/C (%) D22” value is −48% and the “Tumor volume (D22)” value came to 57.3 ± 11.4 mm^3. Further, the “Tumor inhibitory percent (%) D22” value in series [3] was 124%.

On to `CC(=O)O[C@H]1C(=O)[C@@]2(C)[C@H]([C@H](OC(=O)c3ccccc3)[C@]3(O)C[C@H](OC(=O)[C@H](OC(=O)C(CCN(C)C)C(F)F)[C@@H](NC(=O)c4ccccc4)c4ccccc4)C(C)=C1C3(C)C)[C@]1(OC(C)=O)CO[C@@H]1C[C@@H]2O.Cl` (stereo partly drawn) [Compound 20, 2′-O-[4-(N,N-dimethyl)amino-2(R,S)-2-difluoromethylbutyryl]paclitaxel hydrochloride], for which, in series [3], the “Tumor volume (D0)” value turned out to be 133.4 ± 12.6 mm^3, the “Weight change (%) D4” value is −8.4%, the “T/C (%) D22” value is listed as −35% and the “Tumor volume (D22)” value is on record as 61.2 ± 13.5 mm^3. Moreover, the “Tumor inhibitory percent (%) D22” value in series [3] is given as 91%.

Take `CC(=O)O[C@H]1C(=O)[C@@]2(C)[C@H]([C@H](OC(=O)c3ccccc3)[C@]3(O)C[C@H](OC(=O)[C@H](OC(=O)[C@H](F)CCCN(C)C)[C@@H](NC(=O)c4ccccc4)c4ccccc4)C(C)=C1C3(C)C)[C@]1(OC(C)=O)CO[C@@H]1C[C@@H]2O.O=C(O)/C=C\C(=O)O` [Compound 21, 2′-O-[5-(N,N-dimethyl)amino-2(R)-fluorovaleryl]paclitaxel maleate]: in series [3], the “Tumor volume (D0)” value came out at 135.8 ± 14.7 mm^3, the “Weight change (%) D4” value is −9.4%, the “T/C (%) D22” value is on record as −23% and the “Tumor volume (D22)” value amounted to 70.8 ± 16.8 mm^3. In addition, the “Tumor inhibitory percent (%) D22” value in series [3] is given as 60%.

As for `CC(=O)OC1C(=O)C2(C)C(O)CC3OCC3(OC(C)=O)C2C(OC(=O)c2ccccc2)C2(O)CC(OC(=O)C(OC(=O)C(CCCCN(C)C)C(F)F)C(NC(=O)c3ccccc3)c3ccccc3)C(C)=C1C2(C)C.O=S(=O)(O)O` [Compound 22, 2′-O-[6-(N,N-dimethyl)amino-2(S)-2-difluoromethylhexanoyl]paclitaxel sulfate], in series [3], the “Tumor volume (D0)” value is recorded as 133.8 ± 12.2 mm^3, the “Weight change (%) D4” value is given as −11.6%, the “T/C (%) D22” value is −14% and the “Tumor volume (D22)” value is listed as 79.8 ± 12.8 mm^3. In addition, in series [3], the “Tumor inhibitory percent (%) D22” value was determined as 36%.

For the origin of these results see patent US10239851B2 (priority 2014, dated 2019).
